# Source: patent publication US7354593B2, “Coccidial vaccine and methods of making and using same” (Merial Limited, priority 2002, dated 2008)
# Where two headings read alike, the source gives them in different places.
# Assays:
# [1] = tested on: E. acervulina, E. mitis, E. tenella, E. maxima; test: Challenge phase: polyvalent oral challenge with virulent Eimeria, lesion scores and weight gain six days after challenge; type: in vivo, Gallus domesticus (chicken)
# Description: Six days following challenge, the vaccinates and controls from each of the Groups in Table 4 were sacrificed, weighed, and the intestines and ceca were examined and scored for lesions. Scoring was in accordance with the Johnson and Reid cocciodial scoring system, as described in Experimental Parisitology, Vol. 28, p 30-36, 1970, the disclosure of which is incorporated by reference in its entirety, as shown in Table 5.
# On Day 28, the birds to be challenged were moved to wire cages. Salinomycin was discontinued in Group 3 birds to be challenged. All birds and feed we weighed. Fresh fecal samples were collected from the litter from each group in the large pens, 20 samples per pen. Oocysts by quantified by species.
# On Day 29, birds in the cages were challenged using the number of oocysts described in Table 7.
# On Day 35, the challenge birds were terminated, the lesions were scored, and weight gains were taken.
# Challenge. At Day 28, 3 reps of 10 birds from each pen (total of 60 per treatment) were weighed and moved to the battery cages for challenge with field strains of Eimeria (corresponding to the species used in the vaccine). All birds were given non-medicated feed in the cages. On Day 29, birds of Groups 1-4 were challenged and then terminated on Day 35. Lesion scores and weights were recorded.
# (§1) Criteria for Measurement. The primary variables for the floor pen phase were live weights at 28 and 49 days and feed conversion at 49 days. For the challenge phase, primary variables were weight gain six days after challenge, and lesion scores of the upper, mid and cecal gut sections, also at six days after challenge.
# Clostridium sordelli = type: in vivo, Gallus domesticus (chicken); settings: necrotic enteritis mortality
# Protocol: (§2) Observations. Birds were weighed by pen at 0 and 28 days and by pen and sex at 49 days. Dead birds were collected twice daily and necropsy performed to determine cause of death.
# Concurrent Medications and Management of Adverse Events. The Coccivac vaccinated birds became sick 14 days into the trial. […] The responsible agent was identified as Clostridium sordelli. All birds in the trial were administered Penicillin G to decrease contamination, and the affects thereof, between pens and to eliminate any difference in treatments among the groups that could skew the coccidiosis results.
# It is important to note that the Coccivac vaccinated birds became infected with Clostridium sordelli. Clostridial disease has been linked to infection with coccidiosis in the field. Even though the infection did spread to the other treatments, the Coccivac vaccinated birds were the most affected showing 11.77% mortality.
# [2] = Floor pen phase: live weight, feed conversion and total mortality during 7-week grow-out; type: in vivo, Gallus domesticus (chicken)
# Description: The timeline was as follows. On Day 0, birds were weighed by pen. The birds in Groups 1 and 2 were vaccinated as described in Table 9, with 1300 birds per vaccine regime, divided between 2 pens, one in each half of the house. The birds in Group 3 were started on Salinomycin, 60 g/ton, divided as described for Groups 1 and 2. The pens were stocked. Extra hatchmates were retained in wire cages as unvaccinated chicks.
# On Day 21, the feed from starter to grower was changed for all birds. Salinomycin was continued in Group 3.
# On Day 42, all groups were changed to unmedicated finisher feed and the feed back was weighed.
# On Day 49, all birds and feed were weighed and the trial was terminated.
# Vaccination/Medication. Three treatments of birds identified as Groups 1-3 in Table 9, were replicated in half houses, three pens per house, 650 birds per pen, for a total of 1300 birds per treatment. Birds in […] were vaccinated as described in Table 9. An additional treatment group (4) was maintained separately in clean cages as unvaccinated, untreated controls, for use in the challenge test only.
# Treatment Groups 1, 2, and 4 were given non-medicated feed. Treatment Group 3 was given Salinomycin (60 g/ton) beginning on Day 1 through Day 42. The birds in Group 3 to be challenged were given non-medicated feed after the move to the challenge cages. Starter feed was given until 21 days, grower until 42 days and finisher until 49 days. The feed issued was recorded, and any remaining unconsumed feed was weighed back at the time of feed changes and at termination.
# as §2, §1
# Salmonella = test: Killing of Salmonella by oocyst processing agents
# Mycoplasma = test: Killing of Mycoplasma by oocyst processing agent
compound,measurement,setting,value
"CC[C@@H](C(=O)[C@@H](C)[C@@H](O)[C@H](C)[C@@H]1O[C@@H]([C@@H](CC)C(=O)O)CC[C@@H]1C)[C@H]1O[C@]2(C=C[C@@H](O)[C@]3(CC[C@@](C)([C@H]4CC[C@](O)(CC)[C@H](C)O4)O3)O2)[C@H](C)C[C@@H]1C [SALINOMYCIN, Salinomycin]",Initial Wt.,"[1]; Day 28, before challenge, 60 birds challenged per treatment",1435.47ab
same,Final Wt.,"[1]; Day 35, six days after challenge",1488.97b
same,% Mortality Due to Coccidiosis,[1]; after challenge,0%
same,Ceca Lesion Score,"[1]; ceca, six days after challenge, Johnson and Reid score 0 to +4",3.25a
same,Middle Lesion Score,"[1]; mid gut, six days after challenge, Johnson and Reid score 0 to +4",2.90b
same,6 Day Wt. Gain,[1]; six days after challenge,53.50 days
same,ATLS (average total lesion score),[1]; six days after challenge,2.88a
same,TLS (total lesion score),[1]; six days after challenge,8.65a
same,Upper Lesion Score,"[1]; upper intestine, six days after challenge, Johnson and Reid score 0 to +4",2.50a
same,% Mortality NE,Clostridium sordelli; 28 Day Summary,0.46%
same,% Mortality NE,Clostridium sordelli; 49 Day Summary,0.53%
same,% All Mortality,[2]; 28 Day Summary,3.76%
same,Feed Conversion,[2]; 28 Day Summary,1.383
same,Avg Live Wt,"[2]; 28 Day Summary, commercial birds, floor pens",1.45
same,% Mortality Total,[2]; 49 Day Summary,5.38%
same,Avg Live Female Wt,[2]; 49 Day Summary,2.63
same,Avg Live Male Wt,[2]; 49 Day Summary,3.17
same,Avg Total Live Wt,[2]; 49 Day Summary,2.90
same,Feed Conversion,[2]; 49 Day Summary,1.86
[K+].[K+].[O]=[Cr](=[O])([O-])[O][Cr](=[O])(=[O])[O-] [potassium dichromate],killing of Salmonella,Salmonella,effectively killed
OCl [sodium hypochlorite],killing of Mycoplasma,Mycoplasma,effectively killed
same,killing of Salmonella,Salmonella,effectively killed
